Blank lines part the entries; values can stand above or below the molecule they belong to. Calls of active or inactive are those of the source. No cut-off for these calls is given here.
Columns and labels:
MIA PaCa-2 [1] = assay: Inhibition of colony formation in human MIA PaCa-2 cells at 1 to 30 uM measured after 24 hrs by crystal violet staining based analysis; format: functional, cell-based; details: dose 1-30 µM
PANC-1 [2] = assay: Antiproliferative activity against human PANC-1 cells assessed as inhibition of cell growth at upto 20 uM measured after 12 hrs by MTT assay; format: functional, cell-based
PANC-1 [3] = assay: Inhibition of colony formation in human PANC-1 cells assessed as decrease in colony numbers measured after 24 hrs by crystal violet staining based analysis; format: functional, cell-based; details: dose 1-30 µM
MIA PaCa-2 [4] = assay: Antiproliferative activity against human MIA PaCa-2 cells assessed as suppression of cell growth at 30 uM measured after 48 hrs by MTT assay; format: functional, cell-based
MIA PaCa-2 [5] = assay: Antiproliferative activity against human MIA PaCa-2 cells assessed as inhibition of cell growth measured after 48 hrs by MTT assay; format: functional, cell-based; details: MIA PaCa-2, 48 h
MIA PaCa-2 [6] = assay: Inhibition of cell migration in human MIA PaCa-2 cells at 10 uM incubated for 24 hrs by crystal violet staining based microscopic analysis; format: functional
PANC-1 [7] = assay: Antiproliferative activity against human PANC-1 cells assessed as inhibition of cell growth measured after 48 hrs by MTT assay; format: functional, cell-based; details: PANC-1, 48 h
PANC-1 [8] = assay: Inhibition of cell migration in human PANC-1 cells at 10 uM incubated for 12 hrs by crystal violet staining based microscopic analysis; format: functional
[9] = Antiproliferative activity against human HPDE cells assessed as inhibition of cell growth measured after 48 hrs by MTT assay; format: toxicity, cell-based
PANC-1 [10] = assay: Inhibition of p53 R273H mutant protein level in human PANC-1 cells at 10 uM measured after 24 hrs by Western blot analysis; format: functional, cell-based
[11] = Antiproliferative activity against human HEK293 cells assessed as inhibition of cell growth measured after 48 hrs by MTT assay; format: toxicity, cell-based
MIA PaCa-2 [12] = assay: Inhibition of p53 […] mutant protein level in human MIA PaCa-2 cells at 20 uM measured after 24 hrs by Western blot analysis; format: functional, cell-based
[13] = Antiproliferative activity against human IMR-90 cells assessed as inhibition of cell growth measured after 48 hrs by MTT assay; format: toxicity, cell-based
PANC-1 [14] = assay: Inhibition of p53 R273H protein level in human PANC-1 cells at 15 uM measured after 24 hrs by Western blot analysis; format: functional, cell-based

IC50 (PANC-1 [7]): 16 µM
SMILES: C=C1CC[C@@H]2[C@]3(C)COC(C)(C)O[C@@H]3CC[C@@]2(C)[C@@H]1C/C=C1/C(=O)OC[C@H]1OC(=O)Nc1cccc(Br)c1

IC50 (MIA PaCa-2 [5]): > 30 µM
IC50 (PANC-1 [7]): 15.1 µM
SMILES: C=C1CC[C@@H]2[C@]3(C)COC(C)(C)O[C@@H]3CC[C@@]2(C)[C@@H]1C/C=C1/C(=O)OC[C@H]1OC(=O)Nc1cc(F)ccc1F
inhibition (PANC-1 [14]): Active

IC50 (PANC-1 [7]): 29.1 µM
SMILES: C=C1CC[C@@H]2[C@]3(C)COC(C)(C)O[C@@H]3CC[C@@]2(C)[C@@H]1C/C=C1/C(=O)OC[C@H]1OC(=O)Nc1ccc(Cl)cc1

IC50 (PANC-1 [7]): > 30 µM
SMILES: C=C1CC[C@@H]2[C@]3(C)COC(C)(C)O[C@@H]3CC[C@@]2(C)[C@@H]1C/C=C1/C(=O)OC[C@H]1OC(=O)Nc1ccc(F)cc1F
Activity (MIA PaCa-2 [4]): Active

Continued, molecule first:

SMILES: C=C1CC[C@@H]2[C@]3(C)COC(C)(C)O[C@@H]3CC[C@@]2(C)[C@@H]1C/C=C1/C(=O)OC[C@H]1OC(=O)Nc1ccccc1
inhibition (MIA PaCa-2 [1]): Active
Activity (PANC-1 [2]): inactive
inhibition (PANC-1 [3]): Dose-Dependent Effect
Activity (MIA PaCa-2 [4]): Active
IC50 (MIA PaCa-2 [5]): 25.7 µM
inhibition (MIA PaCa-2 [6]): Active
IC50 (PANC-1 [7]): 9.56 µM
inhibition (PANC-1 [8]): Active
IC50 at 48 h [9]: > 30 µM
inhibition (PANC-1 [10]): Active
IC50 at 48 h [11]: > 30 µM
inhibition (MIA PaCa-2 [12]): Active
IC50 at 48 h [13]: > 30 µM

SMILES: C=C1CC[C@@H]2[C@]3(C)COC(C)(C)O[C@@H]3CC[C@@]2(C)[C@@H]1C/C=C1/C(=O)OC[C@H]1OC(=O)Nc1cccc(C#N)c1
inhibition (PANC-1 [14]): Active
IC50 (PANC-1 [7]): 15.2 µM

SMILES: C=C1CC[C@@H]2[C@]3(C)COC(C)(C)O[C@@H]3CC[C@@]2(C)[C@@H]1C/C=C1/C(=O)OC[C@H]1OC(=O)Nc1cccc(OC)c1
IC50 (PANC-1 [7]): 10.8 µM

SMILES: C=C1CC[C@@H]2[C@]3(C)COC(C)(C)O[C@@H]3CC[C@@]2(C)[C@@H]1C/C=C1/C(=O)OC[C@H]1OC(=O)Nc1cccc(C(C)=O)c1
IC50 (MIA PaCa-2 [5]): > 30 µM
IC50 (PANC-1 [7]): 10.9 µM
inhibition (PANC-1 [10]): Active
inhibition (MIA PaCa-2 [12]): Active

SMILES: C=C1CC[C@@H]2[C@](C)(CO)[C@H](O)CC[C@@]2(C)[C@@H]1C/C=C1/C(=O)OC[C@H]1O [ANDROGRAPHOLIDE]
Activity (PANC-1 [2]): inactive
inhibition (PANC-1 [3]): Dose-Dependent Effect
Activity (MIA PaCa-2 [4]): Active
IC50 (MIA PaCa-2 [5]): 21.1 µM
IC50 (PANC-1 [7]): 20.4 µM
inhibition (PANC-1 [8]): Active

SMILES: C=C1CC[C@@H]2[C@]3(C)COC(C)(C)O[C@@H]3CC[C@@]2(C)[C@@H]1C/C=C1/C(=O)OC[C@H]1OC(=O)Nc1cc(C)cc(C)c1
IC50 (PANC-1 [7]): > 30 µM

SMILES: C=C1CC[C@@H]2[C@]3(C)COC(C)(C)O[C@@H]3CC[C@@]2(C)[C@@H]1C/C=C1/C(=O)OC[C@H]1OC(=O)Nc1ccc(Br)cc1
IC50 (MIA PaCa-2 [5]): > 30 µM
IC50 (PANC-1 [7]): 10.2 µM

SMILES: C=C1CC[C@@H]2[C@]3(C)COC(C)(C)O[C@@H]3CC[C@@]2(C)[C@@H]1C/C=C1/C(=O)OC[C@H]1OC(=O)Nc1cccc(C(F)(F)F)c1
IC50 (PANC-1 [7]): > 30 µM

SMILES: C=C1CC[C@@H]2[C@]3(C)COC(C)(C)O[C@@H]3CC[C@@]2(C)[C@@H]1C/C=C1/C(=O)OC[C@H]1OC(=O)Nc1ccc([N+](=O)[O-])cc1
IC50 (PANC-1 [7]): 13.6 µM

SMILES: C=C1CC[C@@H]2[C@]3(C)COC(C)(C)O[C@@H]3CC[C@@]2(C)[C@@H]1C/C=C1/C(=O)OC[C@H]1OC(=O)Nc1ccc(NC(C)=O)cc1
IC50 (PANC-1 [7]): > 30 µM

Source: ChEMBL document CHEMBL5523676, “Design, synthesis, and anti-cancer evaluation of C-14 arylcarbamate derivatives of andrographolide” (Bioorg Med Chem, 2024)
